PMC3789958, “A Bacterial Glucanotransferase Can Replace the Complex Maltose Metabolism Required for Starch to Sucrose Conversion in Leaves at Night*” (The Journal of Biological Chemistry, 2013)
Values belong to the molecule of their own block, whether it stands above or below them.

Tests used:
[1] = biological target: T1, MalQ (Escherichia coli, UniProt P15977); assay: SPR, steady-state affinity fit, MalQ amine-coupled to CM5 chip; assay type: binding; settings: 10 mM HEPES pH 7.0, 25 °C; read-out: dissociation constant
T1 construct: recombinant in E. coli, His-tagged, IMAC purified; biotinylated or amine-coupled for SPR
T1 sequence (P15977 1-694): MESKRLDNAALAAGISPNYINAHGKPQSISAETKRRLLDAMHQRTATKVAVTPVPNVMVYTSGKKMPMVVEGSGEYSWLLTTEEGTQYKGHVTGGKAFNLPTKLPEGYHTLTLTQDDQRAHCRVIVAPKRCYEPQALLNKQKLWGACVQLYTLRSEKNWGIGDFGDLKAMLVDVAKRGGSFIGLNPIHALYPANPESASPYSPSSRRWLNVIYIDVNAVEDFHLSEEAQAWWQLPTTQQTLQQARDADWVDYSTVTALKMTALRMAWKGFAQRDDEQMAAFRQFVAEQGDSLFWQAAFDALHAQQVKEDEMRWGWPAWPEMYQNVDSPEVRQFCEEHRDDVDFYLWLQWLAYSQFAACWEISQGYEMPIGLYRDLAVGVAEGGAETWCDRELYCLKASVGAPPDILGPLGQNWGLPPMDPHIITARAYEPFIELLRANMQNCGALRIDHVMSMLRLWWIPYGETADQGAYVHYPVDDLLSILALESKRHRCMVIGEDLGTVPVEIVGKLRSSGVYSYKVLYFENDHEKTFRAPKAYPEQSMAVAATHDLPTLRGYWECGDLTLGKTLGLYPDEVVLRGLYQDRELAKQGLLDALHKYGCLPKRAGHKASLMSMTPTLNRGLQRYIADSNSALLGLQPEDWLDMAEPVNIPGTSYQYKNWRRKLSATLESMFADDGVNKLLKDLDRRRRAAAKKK

[2] = biological target: T2, DPE2 (Arabidopsis thaliana, UniProt Q8RXD9); assay: SPR, steady-state affinity fit, biotinylated protein on streptavidin chip; assay type: binding; settings: 10 mM HEPES pH 7.0, 25 °C
T2 construct: recombinant in E. coli Rosetta II, pET151, N-terminal His6 tag removed with TEV protease; homodimer; biotinylated for SPR
T2 sequence (Q8RXD9 1-955): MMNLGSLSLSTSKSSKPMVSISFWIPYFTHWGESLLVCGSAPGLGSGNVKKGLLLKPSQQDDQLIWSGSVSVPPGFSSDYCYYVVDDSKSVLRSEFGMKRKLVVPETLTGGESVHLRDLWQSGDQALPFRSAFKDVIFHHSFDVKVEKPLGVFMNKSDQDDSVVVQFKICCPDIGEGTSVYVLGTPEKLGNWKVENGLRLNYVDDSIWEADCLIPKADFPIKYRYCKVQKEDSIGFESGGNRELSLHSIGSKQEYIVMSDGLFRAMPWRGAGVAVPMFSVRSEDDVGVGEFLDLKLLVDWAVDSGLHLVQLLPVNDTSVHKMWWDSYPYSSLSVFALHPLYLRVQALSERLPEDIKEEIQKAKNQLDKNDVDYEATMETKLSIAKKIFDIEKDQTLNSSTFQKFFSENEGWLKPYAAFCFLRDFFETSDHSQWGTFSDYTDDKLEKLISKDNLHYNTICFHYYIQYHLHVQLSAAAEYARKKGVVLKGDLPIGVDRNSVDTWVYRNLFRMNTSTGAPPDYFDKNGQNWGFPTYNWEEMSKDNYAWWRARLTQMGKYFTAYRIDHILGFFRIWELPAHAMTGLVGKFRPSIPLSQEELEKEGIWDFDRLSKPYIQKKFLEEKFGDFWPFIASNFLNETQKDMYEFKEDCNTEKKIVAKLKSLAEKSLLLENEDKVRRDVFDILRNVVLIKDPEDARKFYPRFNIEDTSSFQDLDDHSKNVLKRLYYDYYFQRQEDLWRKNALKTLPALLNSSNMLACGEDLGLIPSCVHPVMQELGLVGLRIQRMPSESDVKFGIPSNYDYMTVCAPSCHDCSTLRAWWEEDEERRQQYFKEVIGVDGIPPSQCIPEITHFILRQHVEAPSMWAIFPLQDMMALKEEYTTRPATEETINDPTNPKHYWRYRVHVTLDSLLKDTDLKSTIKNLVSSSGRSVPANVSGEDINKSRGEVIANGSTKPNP

[3] = biological target: T1, MalQ; assay: as above; assay type: binding; settings: 10 mM HEPES pH 7.0, 25 °C
[4] = biological target: T1, MalQ; assay: coupled hexokinase / glucose-6-phosphate dehydrogenase assay, Hanes plot; assay type: biochemical; settings: maltose as donor, Glc7 as acceptor; two separate preparations; pH 7.9, 1 mM MgCl2
[5] = biological target: T2, DPE2; assay: as above; assay type: biochemical; settings: maltose as donor, glycogen as acceptor; two separate preparations; pH 7.9, 1 mM MgCl2
[6] = biological target: the molecule itself; assay: SEC; Superdex S-200 16/60 in 25 mM HEPES (pH 7.5), 50 mM NaCl; purified DPE2 after His tag cleavage; elution compared with molecular mass markers

Kd [1]: 260 nM
Molecule: OC[C@H]1O[C@H](O[C@H]2[C@H](O)[C@@H](O)[C@@H](O[C@H]3[C@H](O)[C@@H](O)C(O)O[C@@H]3CO)O[C@@H]2CO)[C@H](O)[C@@H](O)[C@@H]1O (stereo partly drawn) [Glc3]

Kd [1]: 410 nM
Molecule: OC[C@H]1O[C@H](O[C@H]2[C@H](O)[C@@H](O)[C@@H](O[C@H]3[C@H](O)[C@@H](O)[C@@H](O[C@H]4[C@H](O)[C@@H](O)C(O)O[C@@H]4CO)O[C@@H]3CO)O[C@@H]2CO)[C@H](O)[C@@H](O)[C@@H]1O (stereo partly drawn) [Glc4]
dissociation constant [2]: bound malto-oligosaccharides Glc5, Glc6, and Glc7 more strongly than Glc4

Molecule: OC[C@H]1O[C@H](O[C@H]2[C@H](O)[C@@H](O)[C@@H](O[C@H]3[C@H](O)[C@@H](O)[C@@H](O[C@H]4[C@H](O)[C@@H](O)[C@@H](O[C@H]5[C@H](O)[C@@H](O)C(O)O[C@@H]5CO)O[C@@H]4CO)O[C@@H]3CO)O[C@@H]2CO)[C@H](O)[C@@H](O)[C@@H]1O (stereo partly drawn) [Glc5]
dissociation constant [2]: bound malto-oligosaccharides Glc5, Glc6, and Glc7 more strongly than Glc4 | dissociation constant [3]: progressively lower affinities for Glc5, Glc6, and Glc7

Molecule: OC[C@H]1O[C@H](O[C@H]2[C@H](O)[C@@H](O)[C@@H](O[C@H]3[C@H](O)[C@@H](O)[C@@H](O[C@H]4[C@H](O)[C@@H](O)[C@@H](O[C@H]5[C@H](O)[C@@H](O)[C@@H](O[C@H]6[C@H](O)[C@@H](O)C(O)O[C@@H]6CO)O[C@@H]5CO)O[C@@H]4CO)O[C@@H]3CO)O[C@@H]2CO)[C@H](O)[C@@H](O)[C@@H]1O (stereo partly drawn) [Glc6]
dissociation constant [2]: bound malto-oligosaccharides Glc5, Glc6, and Glc7 more strongly than Glc4 | dissociation constant [3]: progressively lower affinities for Glc5, Glc6, and Glc7

Molecule: OC[C@H]1O[C@H](O[C@H]2[C@H](O)[C@@H](O)[C@@H](O[C@H]3[C@H](O)[C@@H](O)[C@@H](O[C@H]4[C@H](O)[C@@H](O)[C@@H](O[C@H]5[C@H](O)[C@@H](O)[C@@H](O[C@H]6[C@H](O)[C@@H](O)[C@@H](O[C@H]7[C@H](O)[C@@H](O)C(O)O[C@@H]7CO)O[C@@H]6CO)O[C@@H]5CO)O[C@@H]4CO)O[C@@H]3CO)O[C@@H]2CO)[C@H](O)[C@@H](O)[C@@H]1O (stereo partly drawn) [Glc7]
dissociation constant [2]: bound malto-oligosaccharides Glc5, Glc6, and Glc7 more strongly than Glc4 | dissociation constant [3]: progressively lower affinities for Glc5, Glc6, and Glc7

Km [4]: 2.1 and 1.9 mM | Km [5]: 2.9 and 2.3 mM
Molecule: OC[C@H]1O[C@H](O[C@H]2[C@H](O)[C@@H](O)C(O)O[C@@H]2CO)[C@H](O)[C@@H](O)[C@@H]1O (stereo partly drawn) [maltose]

B1: DPE2 (4-alpha-glucanotransferase, disproportionating enzyme 2) from Arabidopsis, recombinant (enzyme, Arabidopsis thaliana, UniProt Q8RXD9 1-955, looked up)
chain: T2 sequence (Q8RXD9 1-955)
notes: DPE2, cytosolic 4-alpha-glucanotransferase of Arabidopsis thaliana, At2g40840; also called native DPE2; recombinant DPE2; source: E. coli Rosetta II, purified (nickel IMAC, TEV protease treatment, second IMAC, Superdex S-200); not shown: His6, N-terminal, cleaved
stoichiometry N [6]: 2
